Values joined by “and” are separate entries in the source; they are usually repeats but may differ in a detail not shown here. Equal values may be shown once. Toxic doses and inconclusive results are not listed. Cut-off read from the data, not from the text of the source: active = T/C of 150% or more; inactive = T/C below 125%.
System: L1210 leukemia ip in BDF1 mice, survival T/C
Experiment: NCI In Vivo Anticancer Drug Screen. Data for tumor model L1210 Leukemia (intraperitoneal) in B6D2F1 (BDF1) mice
Settings: endpoint: mean survival time, higher = longer survival
How it was run: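 Ratio derived from survival: compound-dosed mice over vehicle-dosed mice, all bearing a transplantable tumor.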

[1] = dose: 100.0 mg/kg/injection, schedule: Q01DX009 (ip), vehicle: saline with Tween-80
[2] = dose: 100.0 mg/kg/injection, schedule: Q04DX003 (ip), vehicle: saline with Tween-80
[3] = dose: 200.0 mg/kg/injection, schedule: Q01DX009 (ip), vehicle: saline with Tween-80
[4] = dose: 200.0 mg/kg/injection, schedule: Q04DX003 (ip), vehicle: saline with Tween-80
[5] = dose: 400.0 mg/kg/injection, schedule: Q01DX009 (ip), vehicle: saline with Tween-80
[6] = dose: 400.0 mg/kg/injection, schedule: Q04DX003 (ip), vehicle: saline with Tween-80
[7] = dose: 50.0 mg/kg/injection, schedule: Q01DX009 (ip), vehicle: saline with Tween-80
[8] = dose: 50.0 mg/kg/injection, schedule: Q01DX009 (ip), vehicle: Klucel (hydroxypropylcellulose) (HPC)
[9] = dose: 100.0 mg/kg/injection, schedule: Q01DX009 (ip), vehicle: Klucel (hydroxypropylcellulose) (HPC)
[10] = dose: 100.0 mg/kg/injection, schedule: Q04DX003 (ip), vehicle: Klucel (hydroxypropylcellulose) (HPC)
[11] = dose: 200.0 mg/kg/injection, schedule: Q01DX009 (ip), vehicle: Klucel (hydroxypropylcellulose) (HPC)
[12] = dose: 200.0 mg/kg/injection, schedule: Q04DX003 (ip), vehicle: Klucel (hydroxypropylcellulose) (HPC)
[13] = dose: 400.0 mg/kg/injection, schedule: Q04DX003 (ip), vehicle: Klucel (hydroxypropylcellulose) (HPC)
[14] = dose: 100.0 mg/kg/injection, schedule: Q01DX001 (ip), vehicle: saline
[15] = dose: 200.0 mg/kg/injection, schedule: Q01DX001 (ip), vehicle: saline
[16] = dose: 400.0 mg/kg/injection, schedule: Q01DX001 (ip), vehicle: saline
[17] = dose: 100.0 mg/kg/injection, schedule: Q01DX009 (ip), vehicle: saline
[18] = dose: 200.0 mg/kg/injection, schedule: Q01DX009 (ip), vehicle: saline
[19] = dose: 100.0 mg/kg/injection, schedule: Q04DX003 (ip), vehicle: saline
[20] = dose: 200.0 mg/kg/injection, schedule: Q04DX003 (ip), vehicle: saline

Measured: T/C

CC(=N/N=C(N)N)/C(C)=N/N=C(N)N
inactive: dose: 15.0 mg/kg/injection, schedule: Q01DX Z (ip), vehicle: saline 98 % of control | dose: 30.0 mg/kg/injection, schedule: Q01DX Z (ip), vehicle: saline 97 % of control | dose: 60.0 mg/kg/injection, schedule: Q01DX005 (oral), vehicle: saline 96 % of control | dose: 60.0 mg/kg/injection, schedule: Q01DX Z (ip), vehicle: saline 108 % of control | dose: 120.0 mg/kg/injection, schedule: Q01DX Z (ip), vehicle: saline 98 % of control

C1C2C3OC3C1C1C2C2C3CC(C4OC34)C12 (stereo not given)
inactive: [1] 94 % of control | [2] 100 % of control | [3] 94 % of control | [4] 101 % of control | [5] 94 % of control | [6] 97 % of control

CCOC(=O)NCC(C)(CCN1CCCCC1)c1cccc2ccccc12 (stereo not given)
inactive: dose: 6.25 mg/kg/injection, schedule: Q04DX003 (ip), vehicle: saline with Tween-80 104 % of control | dose: 12.5 mg/kg/injection, schedule: Q04DX003 (ip), vehicle: saline with Tween-80 98 % of control | dose: 25.0 mg/kg/injection, schedule: Q04DX003 (ip), vehicle: saline with Tween-80 97 % of control

CCOC(=O)c1c2c3c(c(Br)cc(C)c3[nH]c1=O)C(=O)c1ccccc1-2
inactive: [7] 97 % of control | [1] 101 % of control | [3] 101 % of control

C=CCc1ccc(OCCNC(=O)Nc2ccc(C)cc2[N+](=O)[O-])c(OC)c1
inactive: [8] 87 % of control | [9] 98 % of control | [10] 91 % of control | [11] 98 % of control | [12] 96 % of control | [13] 96 % of control

O=C(O)CNC(=O)CNC(=O)C1NC(C(F)(F)F)(C(F)(F)F)OC1(C(F)(F)F)C(F)(F)F (stereo not given)
inactive: dose: 100.0 mg/kg/injection, schedule: Q01DX001 (ip), vehicle: Klucel (hydroxypropylcellulose) (HPC) 97 % of control | dose: 200.0 mg/kg/injection, schedule: Q01DX001 (ip), vehicle: Klucel (hydroxypropylcellulose) (HPC) 101 % of control | dose: 400.0 mg/kg/injection, schedule: Q01DX001 (ip), vehicle: Klucel (hydroxypropylcellulose) (HPC) 92 % of control

COC(=O)C(NC(C)=O)C(C)C (stereo not given)
inactive: dose: 6.25 mg/kg/injection, schedule: Q03HX024 (ip), vehicle: saline 97 % of control | dose: 12.5 mg/kg/injection, schedule: Q03HX024 (ip), vehicle: saline 96 % of control | dose: 25.0 mg/kg/injection, schedule: Q01DX001 (ip), vehicle: saline 100 % of control | dose: 25.0 mg/kg/injection, schedule: Q03HX024 (ip), vehicle: saline 89 % of control | dose: 50.0 mg/kg/injection, schedule: Q01DX001 (ip), vehicle: saline 96 % of control | dose: 50.0 mg/kg/injection, schedule: Q03HX024 (ip), vehicle: saline 89 % of control | [14] 101 % of control | dose: 100.0 mg/kg/injection, schedule: Q03HX024 (ip), vehicle: saline 105 % of control | [15] 99 % of control | [16] 106 % of control

COc1ccc(C(=O)CC(C#N)c2ccc(OC)c(OC)c2)cc1OC (stereo not given)
inactive: [1] 100 % of control | [3] 96 % of control | [5] 100 % of control

CCOc1ccc(OCC)cc1
inactive: [2] 101 % of control | [4] 101 % of control | [6] 94 % of control

CC(=O)Oc1ccc2c(c1)C1(C)CCCC(C)(C(=O)O)C1CC2 (stereo not given)
inactive: [2] 92 % of control | [4] 97 % of control | [6] 94 % of control

Nc1nc(N)c(-c2ccc(Cl)cc2)c(COc2cccc([N+](=O)[O-])c2)n1
inactive: dose: 75.0 mg/kg/injection, schedule: Q01DX001 (ip), vehicle: carboxymethylcellulose (CMC) 89 % of control | dose: 150.0 mg/kg/injection, schedule: Q01DX001 (ip), vehicle: carboxymethylcellulose (CMC) 92 % of control | dose: 300.0 mg/kg/injection, schedule: Q01DX001 (ip), vehicle: carboxymethylcellulose (CMC) 93 % of control

CC(C(=O)c1cccs1)=C(C(F)(F)F)C(F)(F)F
inactive: dose: 100.0 mg/kg/injection, schedule: Q04DX003 (ip), vehicle: other 100 % of control | dose: 200.0 mg/kg/injection, schedule: Q04DX003 (ip), vehicle: other 94 % of control | dose: 400.0 mg/kg/injection, schedule: Q04DX003 (ip), vehicle: other 98 % of control

O=[N+]([O-])c1ccc2[nH]ccc2c1
inactive: [14] 98 % of control | [15] 104 % of control | [16] 102 % of control

O=C1CC(C(=O)O)c2ccccc21 (stereo not given)
inactive: dose: 50.0 mg/kg/injection, schedule: Q01DX009 (ip), vehicle: saline 93 % of control | [17] 90 % of control | [18] 93 % of control

CC(CN=Cc1ccc(N(CCCl)CCCl)cc1)N=Cc1ccc(N(CCCl)CCCl)cc1 (stereo not given)
inactive: dose: 50.0 mg/kg/injection, schedule: Q01DX001 (ip), vehicle: carboxymethylcellulose (CMC) 109 % of control | dose: 100.0 mg/kg/injection, schedule: Q01DX001 (ip), vehicle: carboxymethylcellulose (CMC) 111 % of control | dose: 200.0 mg/kg/injection, schedule: Q01DX001 (ip), vehicle: carboxymethylcellulose (CMC) 109 % of control | dose: 400.0 mg/kg/injection, schedule: Q01DX001 (ip), vehicle: carboxymethylcellulose (CMC) 111 % of control

CC(=O)NC(CSCc1c2ccccc2c(C)c2ccccc12)C(=O)O (stereo not given)
inactive: dose: 25.0 mg/kg/injection, schedule: Q01DX009 (ip), vehicle: saline with Tween-80 97 % of control | [7] 101 % of control | [1] 97 % of control and 92 % of control | [2] 94 % of control | [3] 88 % of control | [4] 96 % of control | [6] 96 % of control

CC#CC(C)(O)C(=O)OC (stereo not given)
inactive: dose: 100.0 mg/kg/injection, schedule: Q01DX001 (ip), vehicle: other 105 % of control | dose: 200.0 mg/kg/injection, schedule: Q01DX001 (ip), vehicle: other 98 % of control | dose: 400.0 mg/kg/injection, schedule: Q01DX001 (ip), vehicle: other 94 % of control

Cc1cc(N)on1
inactive: [17] 97 % of control | [19] 96 % of control | [18] 106 % of control | [20] 101 % of control | dose: 400.0 mg/kg/injection, schedule: Q01DX009 (ip), vehicle: saline 88 % of control | dose: 400.0 mg/kg/injection, schedule: Q04DX003 (ip), vehicle: saline 123 % of control

CCOCCOCCOC(=O)COCC(=O)OCCOCCOCC
inactive: [14] 96 % of control | [15] 113 % of control | [16] 111 % of control

CC(C)=CCCNC(=O)NS(=O)(=O)c1ccc(C)cc1
inactive: [10] 99 % of control | [12] 101 % of control | [13] 97 % of control

O=c1[nH]cnc2nccnc12
inactive: dose: 25.0 mg/kg/injection, schedule: Q04DX003 (ip), vehicle: saline 100 % of control | dose: 50.0 mg/kg/injection, schedule: Q04DX003 (ip), vehicle: saline 101 % of control | [19] 88 % of control | [20] 90 % of control

C=CC(C(=O)OCC)C(O)CCC (stereo not given)
inactive: [8] 104 % of control | [9] 95 % of control | [10] 95 % of control | [11] 101 % of control and 108 % of control | [12] 94 % of control | dose: 400.0 mg/kg/injection, schedule: Q01DX009 (ip), vehicle: Klucel (hydroxypropylcellulose) (HPC) 100 % of control | [13] 101 % of control

CCN(C(=O)COc1ccc(Cl)cc1Cl)c1ccccc1C
inactive: [1] 106 % of control | [2] 105 % of control | [3] 107 % of control | [4] 102 % of control | [5] 98 % of control | [6] 93 % of control

Nc1nc(-c2ccccc2)c(CCCCc2ccccc2)c(=O)[nH]1
inactive: dose: 50.0 mg/kg/injection, schedule: Q01DX Z (ip), vehicle: carboxymethylcellulose (CMC) 97 % of control | dose: 200.0 mg/kg/injection, schedule: Q01DX Z (ip), vehicle: carboxymethylcellulose (CMC) 89 % of control

Cc1ncsc1CCO
inactive: dose: 100.0 mg/kg/injection, schedule: Q01DX001 (ip), vehicle: saline with Tween-80 98 % of control | dose: 200.0 mg/kg/injection, schedule: Q01DX001 (ip), vehicle: saline with Tween-80 102 % of control | dose: 400.0 mg/kg/injection, schedule: Q01DX001 (ip), vehicle: saline with Tween-80 94 % of control
